Measured values taken from patent US20250325562A1, “Intravenous Ganaxolone Formulations and Methods of Use in Treating Status Epilepticus and Other Seizure Disorders” (MARINUS PHARMACEUTICALS, INC., priority 2015, published 2025).

What was measured:
[1] = test system: pilocarpine induced status epilepticus (SE); test: Pilocarpine-induced status epilepticus in rats, cortical EEG power; assay type: in vivo, Male Sprague-Dawley rats; design: key to Treatment effect on EEG power vs vehicle, significance: * P < 0.05; ** P < 0.01; *** P < 0.001; **** P < 0.0001; ns = not significant
Protocol: This study was designed to determine the ability of a CAPTISOL-ganaxolone (GNX) formulation administered intravenously (IV) at 12 and 15 mg/kg to inhibit pilocarpine induced status epilepticus (SE). Allopregnanolone (Allo) (15 mg/kg; IV) was also evaluated for comparison. In this study, test drugs were administered either 15 or 60 minutes after onset of SE and compared to vehicle (30% Captisol).
Cortical EEG activity was recorded in rats before and after administration of pilocarpine to induce SE. Animals were pre-treated with LiCl to enhance and improve reliability of seizure induction and scopolamine to reduce peripheral cholinergic side effects of pilocarpine. EEG activity was recorded for 5 h after SE onset, and anticonvulsant activity was assessed by determining changes in EEG power over frequency ranges from 0.3 to 96 Hz.
Male Sprague-Dawley rats were used for the studies. Rats were surgically implanted with EEG electrodes and jugular vein catheters. The mean weight at the time of recording was 321+3 g (269-351 g).
EEG electrodes were surgically implanted in anesthetized rats. Animals were also treated with an anti-inflammatory anaelgesic (RIMADYL, (carprofen)) prior to surgery and a subcutaneous local anesthetic. Stainless steel screw electrodes chronically were implanted in the skull (0-80×¼″, Plastics-One, Roanoke, VA) such that the ends of the screws were flush with the inner skull surface. One electrode was located 3.0 mm anterior to bregma and 2 mm to the left of midline, and the second 4.0 mm posterior to bregma and 2.5 mm to the right of midline. The skull surface around the electrodes was sealed with super glue and dental acrylic, and the EEG electrode lead wires were inserted into a plastic pedestal mounted on the skull using dental acrylic. Wound edges were treated with triple antibiotic cream (bacitracin zinc, neomycin sulfate, polymyxin B sulfate; Walgreens). Following surgery, animals were administered antibiotic (ampicillin, 50 mg/kg IP at 0.4 mL/kg) and also received a chewable dose (˜10 mg) of Rimadyl following surgery. The animals were allowed to recover from EEG surgery for 1 week.
Rats were implanted with jugular-vein catheters (JVC) one week following EEG surgery. Rats were administered an anti-inflammatory/analgesic and then anesthetized and placed in a supine position. An incision was made in the skin on the right ventrolateral aspect of the neck to expose the external jugular vein which was then dissected free of surrounding fascia. A ligature was tied around the vein anteriorly to occlude blood flow returning to the heart. A second ligature was loosely tied around the vein posteriorly to create tension on the vessel during venotomy and catheter insertion. After incising the vein, a PE catheter (3Fr) was inserted into the vein and advanced approximately 30 mm towards the heart, positioning the tip at the junction of the precava and right atrium. After confirming patency of the catheter by blood withdrawal, the posterior ligature was tied off, and the catheter flushed with a “heparin-lock” solution (5 units heparin/ml saline) and plugged with a sterilized stainless steel pin. The catheter was then exteriorized by tunneling through the subcutaneous tissue to exit posterior to the head between the shoulder blades. Lastly, after suturing the catheter to the skin, all wounds were closed using sutures or wound clips. Immediately following surgery, the animals were awakened to assess catheter patency. Animals also received a chewable dose (˜10 mg) of Rimadyl following surgery to minimize pain and inflammation.
Animals were allowed a 1-week recovery time following JVC surgery. Jugular vein catheters were flushed daily with a 0.1 mL of heparin solution (5 units/mL) to maintain patency. On the day of surgery, the flushing solution contained ampicillin sulbactam (50 mg/kg). […]

[2] = cited from earlier work

## CC(=O)[C@H]1CC[C@H]2[C@@H]3CC[C@H]4C[C@](C)(O)CC[C@]4(C)[C@H]3CC[C@]12C [Ganaxolone, 3α-hydroxy, 3β-methyl-5α-pregnan-20-one]
[1]; 12 mg/kg IV, 60 min post SE onset, 10-30 Hz, 15-30 min post drug
  Treatment effect on EEG power vs vehicle, significance: ** (** P < 0.01)
[1]; 12 mg/kg IV, 60 min post SE onset, 10-30 Hz, 30-60 min post drug
  Treatment effect on EEG power vs vehicle, significance: ** (** P < 0.01)
[1]; 12 mg/kg IV, 60 min post SE onset, 30-50 Hz, 0-15 min. post drug
  Treatment effect on EEG power vs vehicle, significance: ns
[1]; 12 mg/kg IV, 60 min post SE onset, 30-50 Hz, 1-2 hrs post drug
  Treatment effect on EEG power vs vehicle, significance: ** (** P < 0.01)
[1]; 12 mg/kg IV, 60 min post SE onset, 30-50 Hz, 2-3 hrs post drug
  Treatment effect on EEG power vs vehicle, significance: * (* P < 0.05)
[1]; 12 mg/kg IV, 60 min post SE onset, 30-50 Hz, 3-5 hrs post drug
  Treatment effect on EEG power vs vehicle, significance: ns
[1]; 12 mg/kg IV, 60 min post SE onset, 30-50 Hz, 15-30 min post drug
  Treatment effect on EEG power vs vehicle, significance: ns
[1]; 12 mg/kg IV, 60 min post SE onset, 30-50 Hz, 30-60 min post drug
  Treatment effect on EEG power vs vehicle, significance: * (* P < 0.05)
[1]; 12 mg/kg IV, 60 min post SE onset, 50-70 Hz, 0-15 min. post drug
  Treatment effect on EEG power vs vehicle, significance: ns
[1]; 12 mg/kg IV, 60 min post SE onset, 50-70 Hz, 1-2 hrs post drug
  Treatment effect on EEG power vs vehicle, significance: ** (** P < 0.01)
[1]; 12 mg/kg IV, 60 min post SE onset, 50-70 Hz, 15-30 min post drug
  Treatment effect on EEG power vs vehicle, significance: * (* P < 0.05)
[1]; 12 mg/kg IV, 60 min post SE onset, 50-70 Hz, 30-60 min post drug
  Treatment effect on EEG power vs vehicle, significance: ** (** P < 0.01)
[1]; 15 mg/kg IV, 15 min post SE onset, 0-5 Hz, 0-15 min. post drug
  Treatment effect on EEG power vs vehicle, significance: **** (**** P < 0.0001)
[1]; 15 mg/kg IV, 15 min post SE onset, 0-5 Hz, 1-2 hrs post drug
  Treatment effect on EEG power vs vehicle, significance: **** (**** P < 0.0001)
[1]; 15 mg/kg IV, 15 min post SE onset, 0-5 Hz, 2-3 hrs post drug
  Treatment effect on EEG power vs vehicle, significance: **** (**** P < 0.0001)
[1]; 15 mg/kg IV, 15 min post SE onset, 0-5 Hz, 3-5 hrs post drug
  Treatment effect on EEG power vs vehicle, significance: *** (*** P < 0.001)
[1]; 15 mg/kg IV, 15 min post SE onset, 0-5 Hz, 15-30 min post drug
  Treatment effect on EEG power vs vehicle, significance: **** (**** P < 0.0001)
[1]; 15 mg/kg IV, 15 min post SE onset, 0-5 Hz, 30-60 min post drug
  Treatment effect on EEG power vs vehicle, significance: **** (**** P < 0.0001)
[1]; 15 mg/kg IV, 15 min post SE onset, 5-10 Hz, 0-15 min. post drug
  Treatment effect on EEG power vs vehicle, significance: **** (**** P < 0.0001)
[1]; 15 mg/kg IV, 15 min post SE onset, 5-10 Hz, 1-2 hrs post drug
  Treatment effect on EEG power vs vehicle, significance: **** (**** P < 0.0001)
[1]; 15 mg/kg IV, 15 min post SE onset, 5-10 Hz, 2-3 hrs post drug
  Treatment effect on EEG power vs vehicle, significance: *** (*** P < 0.001)
[1]; 15 mg/kg IV, 15 min post SE onset, 5-10 Hz, 3-5 hrs post drug
  Treatment effect on EEG power vs vehicle, significance: ns
[1]; 15 mg/kg IV, 15 min post SE onset, 5-10 Hz, 15-30 min post drug
  Treatment effect on EEG power vs vehicle, significance: **** (**** P < 0.0001)
[1]; 15 mg/kg IV, 15 min post SE onset, 5-10 Hz, 30-60 min post drug
  Treatment effect on EEG power vs vehicle, significance: **** (**** P < 0.0001)
[1]; 15 mg/kg IV, 15 min post SE onset, 10-30 Hz, 0-15 min. post drug
  Treatment effect on EEG power vs vehicle, significance: **** (**** P < 0.0001)
[1]; 15 mg/kg IV, 15 min post SE onset, 10-30 Hz, 1-2 hrs post drug
  Treatment effect on EEG power vs vehicle, significance: ** (** P < 0.01)
[1]; 15 mg/kg IV, 15 min post SE onset, 10-30 Hz, 2-3 hrs post drug
  Treatment effect on EEG power vs vehicle, significance: * (* P < 0.05)
[1]; 15 mg/kg IV, 15 min post SE onset, 10-30 Hz, 3-5 hrs post drug
  Treatment effect on EEG power vs vehicle, significance: ns
[1]; 15 mg/kg IV, 15 min post SE onset, 10-30 Hz, 15-30 min post drug
  Treatment effect on EEG power vs vehicle, significance: **** (**** P < 0.0001)
[1]; 15 mg/kg IV, 15 min post SE onset, 10-30 Hz, 30-60 min post drug
  Treatment effect on EEG power vs vehicle, significance: **** (**** P < 0.0001)
[1]; 15 mg/kg IV, 15 min post SE onset, 30-50 Hz, 0-15 min. post drug
  Treatment effect on EEG power vs vehicle, significance: *** (*** P < 0.001)
[1]; 15 mg/kg IV, 15 min post SE onset, 30-50 Hz, 1-2 hrs post drug
  Treatment effect on EEG power vs vehicle, significance: ** (** P < 0.01)
[1]; 15 mg/kg IV, 15 min post SE onset, 30-50 Hz, 2-3 hrs post drug
  Treatment effect on EEG power vs vehicle, significance: ns
[1]; 15 mg/kg IV, 15 min post SE onset, 30-50 Hz, 3-5 hrs post drug
  Treatment effect on EEG power vs vehicle, significance: ns
[1]; 15 mg/kg IV, 15 min post SE onset, 30-50 Hz, 15-30 min post drug
  Treatment effect on EEG power vs vehicle, significance: *** (*** P < 0.001)
[1]; 15 mg/kg IV, 15 min post SE onset, 30-50 Hz, 30-60 min post drug
  Treatment effect on EEG power vs vehicle, significance: *** (*** P < 0.001)
[1]; 15 mg/kg IV, 15 min post SE onset, 50-70 Hz, 0-15 min. post drug
  Treatment effect on EEG power vs vehicle, significance: ** (** P < 0.01)
[1]; 15 mg/kg IV, 15 min post SE onset, 50-70 Hz, 1-2 hrs post drug
  Treatment effect on EEG power vs vehicle, significance: ** (** P < 0.01)
[1]; 15 mg/kg IV, 15 min post SE onset, 50-70 Hz, 2-3 hrs post drug
  Treatment effect on EEG power vs vehicle, significance: ns
[1]; 15 mg/kg IV, 15 min post SE onset, 50-70 Hz, 3-5 hrs post drug
  Treatment effect on EEG power vs vehicle, significance: ns
[1]; 15 mg/kg IV, 15 min post SE onset, 50-70 Hz, 15-30 min post drug
  Treatment effect on EEG power vs vehicle, significance: ** (** P < 0.01)
[1]; 15 mg/kg IV, 15 min post SE onset, 50-70 Hz, 30-60 min post drug
  Treatment effect on EEG power vs vehicle, significance: ** (** P < 0.01)
[1]; 15 mg/kg IV, 15 min post SE onset, 70-96 Hz, 0-15 min. post drug
  Treatment effect on EEG power vs vehicle, significance: ** (** P < 0.01)
[1]; 15 mg/kg IV, 15 min post SE onset, 70-96 Hz, 1-2 hrs post drug
  Treatment effect on EEG power vs vehicle, significance: ** (** P < 0.01)
[1]; 15 mg/kg IV, 15 min post SE onset, 70-96 Hz, 2-3 hrs post drug
  Treatment effect on EEG power vs vehicle, significance: ns
[1]; 15 mg/kg IV, 15 min post SE onset, 70-96 Hz, 3-5 hrs post drug
  Treatment effect on EEG power vs vehicle, significance: ns
[1]; 15 mg/kg IV, 15 min post SE onset, 70-96 Hz, 15-30 min post drug
  Treatment effect on EEG power vs vehicle, significance: *** (*** P < 0.001)
[1]; 15 mg/kg IV, 15 min post SE onset, 70-96 Hz, 30-60 min post drug
  Treatment effect on EEG power vs vehicle, significance: ** (** P < 0.01)
[1]; 12 and 15 mg/kg IV
  reduction in SE amplitude: very strong reduction in SE amplitude overall
[1]; dosed 15 minutes after SE-onset
  EEG power: reduced EEG power across all frequency ranges to levels at or below baseline for at up to 5 h
[1]; dosed at 60′ post SE-onset, not below baseline up to 70 Hz
  EEG power: strongly reduced
[2]; human plasma following oral administration
  half-life: approximately 20 hours
[2]; therapeutic blood levels are reached quickly
  Tmax: short
